Results from ChEMBL document CHEMBL2346565, “Syntheses and biological evaluation of 1-heteroaryl-2-aryl-1H-benzimidazole derivatives as c-Jun N-terminal kinase inhibitors with neuroprotective effects” (Bioorg Med Chem, 2013).
Values belong to the molecule of their own block, whether it stands above or below them.

How the values were obtained:
[1] = target: Mitogen-activated protein kinase 9 (Homo sapiens, UniProt P45984); test: Competitive inhibition of JNK2 (unknown origin) in presence of ATP
[2] = target: T1, Mitogen-activated protein kinase 10 (Homo sapiens, UniProt P53779); test: Competitive inhibition of JNK3 (unknown origin) in presence of ATP
T1 sequence (P53779 whole entry, the tested form may be a part): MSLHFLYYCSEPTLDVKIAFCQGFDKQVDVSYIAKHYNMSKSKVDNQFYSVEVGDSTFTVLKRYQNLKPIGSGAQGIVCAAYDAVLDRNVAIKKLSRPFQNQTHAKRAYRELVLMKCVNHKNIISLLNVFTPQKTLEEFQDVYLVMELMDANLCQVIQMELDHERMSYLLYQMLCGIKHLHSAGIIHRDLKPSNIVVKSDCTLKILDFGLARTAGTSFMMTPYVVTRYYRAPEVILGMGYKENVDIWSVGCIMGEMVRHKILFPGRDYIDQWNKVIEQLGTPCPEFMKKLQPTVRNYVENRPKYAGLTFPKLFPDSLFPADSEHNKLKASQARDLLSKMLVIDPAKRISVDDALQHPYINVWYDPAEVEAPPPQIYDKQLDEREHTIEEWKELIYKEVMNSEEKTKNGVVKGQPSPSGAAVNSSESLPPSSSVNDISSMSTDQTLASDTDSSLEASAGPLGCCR

[3] = target: T1, Mitogen-activated protein kinase 10; test: Binding affinity to N-terminal His6X-tagged human recombinant JNK3 catalytic domain expressed in Escherichia coli BL21 (DE3) by surface plasmon resonance analysis
[4] = target: T1, Mitogen-activated protein kinase 10; test: Inhibition of JNK3 in human PBMCs assessed as decrease in LPS-induced TNFalpha mRNA level after 4 hrs by real-time reverse transcription-PCR analysis

Chain of Mitogen-activated protein kinase 9 (P45984 whole entry): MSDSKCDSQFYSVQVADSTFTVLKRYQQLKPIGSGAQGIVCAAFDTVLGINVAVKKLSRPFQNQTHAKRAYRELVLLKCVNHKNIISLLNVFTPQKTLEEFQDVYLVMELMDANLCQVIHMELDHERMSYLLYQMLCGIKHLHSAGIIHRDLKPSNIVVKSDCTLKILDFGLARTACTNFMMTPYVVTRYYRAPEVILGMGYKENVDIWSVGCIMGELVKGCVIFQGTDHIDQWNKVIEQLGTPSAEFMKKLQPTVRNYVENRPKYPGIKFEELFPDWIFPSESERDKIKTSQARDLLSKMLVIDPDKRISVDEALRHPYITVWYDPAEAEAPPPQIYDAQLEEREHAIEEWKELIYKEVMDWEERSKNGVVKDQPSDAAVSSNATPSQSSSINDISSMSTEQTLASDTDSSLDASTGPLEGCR

IC50 [1]: 2.18 µM
IC50 [2]: 1.86 µM
Structure (SMILES): Oc1cccc(-c2nc3ccccc3n2-c2ccnc(N[C@@H]3CCCNC3)c2)c1

Kd [3]: 18.1 µM
Structure (SMILES): COc1ccc2c(c1)nc(-c1ccc(C)c(Cl)c1)n2-c1ccnc(NC2CCCCC2)c1

IC50 [4]: 10 µM
inhibition [4]: Dose-dependent effect
Structure (SMILES): Oc1c2ccccc2c2c3c(cccc13)N=N2 [SP-600125]
